Tests used:
BT-549 = experiment: NCI one-dose assay; assay type: cell-based; conditions: Homo sapiens, BT-549, Breast cancer, read-out: Cell growth inhibition %
EKVX = experiment: NCI one-dose assay; assay type: cell-based; conditions: Homo sapiens, Non-small cell lung cancer, read-out: Cell growth inhibition %
HCC-2998 = experiment: NCI one-dose assay; assay type: cell-based; conditions: Homo sapiens, HCC-2998, Colon cancer, read-out: Cell growth inhibition %
HCT-116 = experiment: NCI one-dose assay; assay type: cell-based; conditions: Homo sapiens, HCT-116, Colon cancer, read-out: Cell growth inhibition %
HL-60(TB) = experiment: NCI one-dose assay; assay type: cell-based; conditions: Homo sapiens, Leukemia, read-out: Cell growth inhibition %
HT29 = experiment: NCI one-dose assay; assay type: cell-based; conditions: Homo sapiens, HT-29, HT29, Colon cancer, read-out: Cell growth inhibition %
MCF7 = experiment: NCI one-dose assay; assay type: cell-based; conditions: Homo sapiens, MCF7, Breast cancer, read-out: Cell growth inhibition %
MDA-MB-231/ATCC = experiment: NCI one-dose assay; assay type: cell-based; conditions: Homo sapiens, Breast cancer, read-out: Cell growth inhibition %
NCI-H322M = experiment: NCI one-dose assay; assay type: cell-based; conditions: Homo sapiens, Non-small cell lung cancer, read-out: Cell growth inhibition %
NCI-H460 = experiment: NCI one-dose assay; assay type: cell-based; conditions: Homo sapiens, NCI-H460, Non-small cell lung cancer, read-out: Cell growth inhibition %
NCI-H522 = experiment: NCI one-dose assay; assay type: cell-based; conditions: Homo sapiens, NCI-H522, Non-small cell lung cancer, read-out: Cell growth inhibition %
RXF 393 = experiment: NCI one-dose assay; assay type: cell-based; conditions: Homo sapiens, RXF 393, Renal cancer, read-out: Cell growth inhibition %
SF-295 = experiment: NCI one-dose assay; assay type: cell-based; conditions: Homo sapiens, SF-295, CNS cancer, read-out: Cell growth inhibition %
SK-MEL-28 = experiment: NCI one-dose assay; assay type: cell-based; conditions: Homo sapiens, SK-MEL-28, Melanoma, read-out: Cell growth inhibition %
SK-OV-3 = experiment: NCI one-dose assay; assay type: cell-based; conditions: Homo sapiens, SK-OV-3, Ovarian cancer, read-out: Cell growth inhibition %
SW-620 = experiment: NCI one-dose assay; assay type: cell-based; conditions: Homo sapiens, SW-620, Colon cancer, read-out: Cell growth inhibition %
T-47D = experiment: NCI one-dose assay; assay type: cell-based; conditions: Homo sapiens, T47D, Breast cancer, read-out: Cell growth inhibition %
TK-10 = experiment: NCI one-dose assay; assay type: cell-based; conditions: Homo sapiens, TK-10, Renal cancer, read-out: Cell growth inhibition %
U251 = experiment: NCI one-dose assay; assay type: cell-based; conditions: Homo sapiens, U-251, U251, CNS cancer, read-out: Cell growth inhibition %
786-0 = experiment: NCI one-dose assay; assay type: cell-based, human; conditions: Homo sapiens, 786-0, 786-0, Renal cancer, read-out: Cell growth inhibition %
Method: (§1) The National Cancer Institute (NCI), Bethesda, USA, selected the final compounds 6a–j and 7a–j for in vitro anticancer screening. An initial in vitro single-dose anticancer experiment was performed with the entire NCI 60 cell lines derived from nine tumor subpanel cancer cell lines. The results for each compound were illustrated as a mean graph showing the percentage growth of treated cells compared to untreated control cells (see Supplementary Materials).
(§2) The NCI anticancer screening process has been thoroughly detailed. The Drug Evaluation Branch of the National Cancer Institute in Bethesda, […], USA, established the procedure and conducted the anticancer assay on 60 human tumor cell lines from nine neoplastic cancers.

HOP-92 = experiment: NCI one-dose assay; assay type: cell-based, human; conditions: for inhibition at 10 µM: Homo sapiens, HOP-92, HOP-92, Non-small cell lung cancer, read-out: Cell growth inhibition %
Method: as §1, §2

UO-31 = experiment: NCI one-dose assay; assay type: cell-based, human; conditions: for inhibition at 10 µM: Homo sapiens, UO-31, UO-31, Renal cancer, read-out: Cell growth inhibition %; for Cell growth inhibition %: UO-31, Renal cancer, 10 µM
Method: as §1, §2

NCI 60 cell lines = experiment: NCI one-dose assay, full panel; assay type: cell-based, human; conditions: across all cell lines, 10 µM
Method: as §1, §2

Compound | inhibition at 10 µM (BT-549) [%] | inhibition at 10 µM (EKVX) [%] | inhibition at 10 µM (HCC-2998) [%] | inhibition at 10 µM (HCT-116) [%] | inhibition at 10 µM (HL-60(TB)) [%] | inhibition at 10 µM (HT29) [%] | inhibition at 10 µM (MCF7) [%] | inhibition at 10 µM (MDA-MB-231/ATCC) [%] | inhibition at 10 µM (NCI-H322M) [%] | inhibition at 10 µM (NCI-H460) [%] | inhibition at 10 µM (NCI-H522) [%] | inhibition at 10 µM (RXF 393) [%] | inhibition at 10 µM (SF-295) [%] | inhibition at 10 µM (SK-MEL-28) [%] | inhibition at 10 µM (SK-OV-3) [%] | inhibition at 10 µM (SW-620) [%] | inhibition at 10 µM (T-47D) [%] | inhibition at 10 µM (TK-10) [%] | inhibition at 10 µM (U251) [%] | inhibition at 10 µM (786-0) [%] | further results
C=CCn1c(SCC(=O)c2ccccc2)nnc1-c1c[nH]c2ccccc12 [Compound 6a, 2-((4-Allyl-5-(1H-indol-3-yl)-4H-1,2,4-triazol-3-yl)thio)-1-phenylethanone] | -9.39 | 4.22 | -10.6 | 2.55 | 4.39 | -11.8 | 2.77 | 11.2 | -1.89 | -6.84 | 2.25 | -2.2 | 3.79 | -5.22 | -20.4 | 3.89 | 5.03 | -43.9 | -7.24 | -1.07 | inhibition at 10 µM (HOP-92): 18.7%; inhibition at 10 µM (UO-31): 35%; Cell growth inhibition % (UO-31): 34.27%
C=CCn1c(SCC(=O)c2ccc(OC)cc2)nnc1-c1c[nH]c2ccccc12 [Compound 6b, 2-((4-Allyl-5-(1H-indol-3-yl)-4H-1,2,4-triazol-3-yl)thio)-1-(4-methoxyphenyl) Ethenone] | -1.84 | 3.03 | -3.48 | 5.43 | 8.98 | -12.7 | 5.93 | 11.1 | 2.42 | -1.3 | 0.49 | -5.88 | 2.91 | 1.56 | -30.5 | 0.51 | 11.1 | -40.5 | 2.31 | -1.31 | inhibition at 10 µM (HOP-92): 17.3%; inhibition at 10 µM (UO-31): 26.9%; anticancer activity (in words) (NCI 60 cell lines): minimal anticancer activity
C=CCn1c(SCC(=O)c2ccc(C)cc2)nnc1-c1c[nH]c2ccccc12 [Compound 6c, 2-((4-allyl-5-(1H-indol-3-yl)-4H-1,2,4-triazol-3-yl)thio)-1-(p-tolyl)ethanone] | 2.35 | 8.94 | -7.01 | 9.79 | 10.4 | -6.98 | 9.88 | 11.5 | 0.83 | 1.59 | 4.55 | -0.07 | 3.28 | -4.91 | -22.4 | -0.34 | 9.92 | -39.1 | 6.75 | 2.26 | Cell growth inhibition % (HOP-92; HOP-92, Non-small cell lung cancer, 10 µM): 49.73%; inhibition at 10 µM (HOP-92): 50%; inhibition at 10 µM (UO-31): 29.7%
C=CCn1c(SCC(=O)c2ccc(Br)cc2)nnc1-c1c[nH]c2ccccc12 [Compound 6d, 2-((4-Allyl-5-(1H-indol-3-yl)-4H-1,2,4-triazol-3-yl)thio)-1-(4-bromophenyl)ethenone] | -5.98 | 7.22 | -4.47 | 6.53 | 7.71 | -4.18 | 2.11 | 3.15 | 0.55 | -6.13 | 3.7 | -12.8 | 6.78 | 3.9 | -13.1 | -10.2 | 2.98 | -34.3 | 0.12 | 1.44 | inhibition at 10 µM (HOP-92): 8.6%; inhibition at 10 µM (UO-31): 31.6%; anticancer activity (in words) (NCI 60 cell lines): minimal anticancer activity
C=CCn1c(SCC(=O)c2ccc(Cl)cc2)nnc1-c1c[nH]c2ccccc12 [Compound 6e, 2-((4-Allyl-5-(1H-indol-3-yl)-4H-1,2,4-triazol-3-yl)thio)-1-(4-chlorophenyl)ethenone] | -0.26 | 8.21 | -15.6 | 6.8 | 10.8 | -7.4 | 7.08 | 8.19 | -2.47 | -3.47 | 7.55 | -9.22 | 3.57 | -10.1 | -20.6 | -2.66 | 3.25 | -24.3 | 3.75 | 3.55 | inhibition at 10 µM (HOP-92): 21%; inhibition at 10 µM (UO-31): 28.5%; anticancer activity (in words) (NCI 60 cell lines): minimal anticancer activity
C=CCn1c(SC/C(=N\O)c2ccccc2)nnc1-c1c[nH]c2ccccc12 [Compound 7a, (Z)-2-((4-Allyl-5-(1H-indol-3-yl)-4H-1,2,4-triazol-3-yl)thio)-1-phenylethanone Oxime] | -3.51 | 5.6 | 0.84 | 9.24 | 9.34 | -3.61 | -2.96 | 3.9 | -0.17 | 3.34 | 4.48 | -4.5 | 12.4 | -4.36 | 2.21 | 0.27 | 8.67 | -12.2 | 4.62 | 4.91 | inhibition at 10 µM (HOP-92): 5.05%; inhibition at 10 µM (UO-31): 20.9%; anticancer activity (in words) (NCI 60 cell lines): minimal anticancer activity
C=CCn1c(SC/C(=N\O)c2ccc(C)cc2)nnc1-c1c[nH]c2ccccc12 [Compound 7c, (Z)-2-((4-allyl-5-(1H-indol-3-yl)-4H-1,2,4-triazol-3-yl)thio)-1-(p-tolyl)ethanone Oxime] | -7.22 | 17.7 | 1.5 | 22.3 | 10 | -4.09 | 11.9 | 4.01 | 5.67 | 9.2 | 14.6 | -5.46 | 15.1 | -5.62 | -0.26 | 4.06 | 26.5 | -26.8 | -2.94 | -2.2 | inhibition at 10 µM (HOP-92): 7.98%; inhibition at 10 µM (UO-31): 35%; Cell growth inhibition % (UO-31): 34.99%
